Source: ChEMBL document CHEMBL2157886, “Synthesis and evaluation of ¹⁸F-labeled styryltriazole and resveratrol derivatives for β-amyloid plaque imaging” (J Med Chem, 2012)

Columns and labels:
[1] = Binding affinity to amyloid beta (1-42) aggregates
[2] = Displacement of [125I]TZDM from amyloid beta (1 to 42) aggregates after 3 hrs by gamma counting
[3] = Partition coefficient, log P of the compound; format: physicochemical; details: octanol/water
Brain [4] = assay: Ratio of drug uptake in mouse brain after 2 mins to 30 mins; format: ADME, tissue-based; details: in vivo
Brain [5] = assay: Drug uptake in mouse brain after 2 mins; format: ADME, tissue-based; details: in vivo
Lung [6] = assay: Drug uptake in ICR mouse lung at 1.11 MBq, iv after 60 mins postinjection; format: ADME, organism-based; details: in vivo, 1 h
Blood [7] = assay: Drug uptake in ICR mouse blood at 1.11 MBq, iv after 30 mins postinjection; format: ADME, organism-based; details: in vivo, 0.5 h
Kidney [8] = assay: Drug uptake in ICR mouse kidney at 1.11 MBq, iv after 30 mins postinjection; format: ADME, organism-based; details: in vivo, 0.5 h
Muscle tissue [9] = assay: Drug uptake in ICR mouse muscle at 1.11 MBq, iv after 2 mins postinjection; format: ADME, organism-based; details: in vivo
Heart [10] = assay: Drug uptake in ICR mouse heart at 1.11 MBq, iv after 30 mins postinjection; format: ADME, organism-based; details: in vivo, 0.5 h
Spleen [11] = assay: Drug uptake in ICR mouse spleen at 1.11 MBq, iv after 60 mins postinjection; format: ADME, organism-based; details: in vivo, 1 h
Spleen [12] = assay: Drug uptake in ICR mouse spleen at 1.11 MBq, iv after 2 mins postinjection; format: ADME, organism-based; details: in vivo
Femur [13] = assay: Drug uptake in ICR mouse femur at 1.11 MBq, iv after 120 mins postinjection; format: ADME, organism-based; details: in vivo, 2 h
[14] = Octanol-water partition coefficient, log P of the compound; format: physicochemical
Muscle tissue [15] = assay: Drug uptake in ICR mouse muscle at 1.11 MBq, iv after 60 mins postinjection; format: ADME, organism-based; details: in vivo, 1 h
Kidney [16] = assay: Drug uptake in ICR mouse kidney at 1.11 MBq, iv after 2 mins postinjection; format: ADME, organism-based; details: in vivo
Heart [17] = assay: Drug uptake in ICR mouse heart at 1.11 MBq, iv after 60 mins postinjection; format: ADME, organism-based; details: in vivo, 1 h
Brain [18] = assay: Drug uptake in ICR mouse brain at 1.11 MBq, iv after 120 mins postinjection; format: ADME, organism-based; details: in vivo, 2 h
Liver [19] = assay: Drug uptake in ICR mouse liver at 1.11 MBq, iv after 30 mins postinjection; format: ADME, organism-based; details: in vivo, 0.5 h
Blood [20] = assay: Drug uptake in ICR mouse blood at 1.11 MBq, iv after 60 mins postinjection; format: ADME, organism-based; details: in vivo, 1 h
Lung [21] = assay: Drug uptake in ICR mouse lung at 1.11 MBq, iv after 30 mins postinjection; format: ADME, organism-based; details: in vivo, 0.5 h
Heart [22] = assay: Drug uptake in ICR mouse heart at 1.11 MBq, iv after 2 mins postinjection; format: ADME, organism-based; details: in vivo
Liver [23] = assay: Drug uptake in ICR mouse liver at 1.11 MBq, iv after 120 mins postinjection; format: ADME, organism-based; details: in vivo, 2 h
Lung [24] = assay: Drug uptake in ICR mouse lung at 1.11 MBq, iv after 120 mins postinjection; format: ADME, organism-based; details: in vivo, 2 h
Blood [25] = assay: Drug uptake in ICR mouse blood at 1.11 MBq, iv after 2 mins postinjection; format: ADME, organism-based; details: in vivo
Brain [26] = assay: Ratio of drug uptake in mouse brain after 2 mins to 60 mins; format: ADME, tissue-based; details: in vivo
Brain [27] = assay: Drug uptake in ICR mouse brain at 1.11 MBq, iv after 60 mins postinjection; format: ADME, organism-based; details: in vivo, 1 h
Spleen [28] = assay: Drug uptake in ICR mouse spleen at 1.11 MBq, iv after 30 mins postinjection; format: ADME, organism-based; details: in vivo, 0.5 h
Spleen [29] = assay: Drug uptake in ICR mouse spleen at 1.11 MBq, iv after 120 mins postinjection; format: ADME, organism-based; details: in vivo, 2 h
Muscle tissue [30] = assay: Drug uptake in ICR mouse muscle at 1.11 MBq, iv after 30 mins postinjection; format: ADME, organism-based; details: in vivo, 0.5 h
Femur [31] = assay: Drug uptake in ICR mouse femur at 1.11 MBq, iv after 30 mins postinjection; format: ADME, organism-based; details: in vivo, 0.5 h
Femur [32] = assay: Drug uptake in ICR mouse femur at 1.11 MBq, iv after 2 mins postinjection; format: ADME, organism-based; details: in vivo
Heart [33] = assay: Drug uptake in ICR mouse heart at 1.11 MBq, iv after 120 mins postinjection; format: ADME, organism-based; details: in vivo, 2 h
Brain [34] = assay: Drug uptake in ICR mouse brain at 1.11 MBq, iv after 30 mins postinjection; format: ADME, organism-based; details: in vivo, 0.5 h
Blood [35] = assay: Drug uptake in ICR mouse blood at 1.11 MBq, iv after 120 mins postinjection; format: ADME, organism-based; details: in vivo, 2 h
Lung [36] = assay: Drug uptake in ICR mouse lung at 1.11 MBq, iv after 2 mins postinjection; format: ADME, organism-based; details: in vivo
Brain [37] = assay: Drug uptake in ICR mouse brain at 1.11 MBq, iv after 2 mins postinjection; format: ADME, organism-based; details: in vivo
Kidney [38] = assay: Drug uptake in ICR mouse kidney at 1.11 MBq, iv after 60 mins postinjection; format: ADME, organism-based; details: in vivo, 1 h
Liver [39] = assay: Drug uptake in ICR mouse liver at 1.11 MBq, iv after 60 mins postinjection; format: ADME, organism-based; details: in vivo, 1 h
Kidney [40] = assay: Drug uptake in ICR mouse kidney at 1.11 MBq, iv after 120 mins postinjection; format: ADME, organism-based; details: in vivo, 2 h
Femur [41] = assay: Drug uptake in ICR mouse femur at 1.11 MBq, iv after 60 mins postinjection; format: ADME, organism-based; details: in vivo, 1 h
Liver [42] = assay: Drug uptake in ICR mouse liver at 1.11 MBq, iv after 2 mins postinjection; format: ADME, organism-based; details: in vivo
Muscle tissue [43] = assay: Drug uptake in ICR mouse muscle at 1.11 MBq, iv after 120 mins postinjection; format: ADME, organism-based; details: in vivo, 2 h
Brain [44] = assay: Ratio of drug uptake in BALB/c mouse brain after 5 mins to 30 mins; format: ADME, tissue-based; details: in vivo
Cynomolgus monkey [45] = assay: Drug uptake in cynomolgus monkey brain after 1.5 mins; format: ADME, organism-based, Macaca fascicularis; details: in vivo, 0.025 h
Cynomolgus monkey [46] = assay: Drug uptake in cynomolgus monkey brain after 55 mins; format: ADME, organism-based, Macaca fascicularis; details: in vivo

[11CH3]Nc1ccc(-c2nc3ccc(O)cc3s2)cn1
Ki [1]: 19.7 nM

CN(C)c1ccc(-c2nc3ccc([125I])cc3s2)cc1
Ki [1]: 1.9 nM

CNc1ccc(-c2cn3c(n2)sc2cc(OC)ccc23)cc1
Ki [1]: 3.5 nM

CN(C)c1ccc(/C=C/c2cn(CCF)nn2)cc1
Ki [2]: 12.8 nM

CNc1ccc(/C=C/c2ccc(OCCOCCOCC[18F])cc2)cc1 [FLORBETABEN F18]
Ki [1]: 2.22 nM
logP [3]: 2.41
Ratio (Brain [4]): 4.89
Drug uptake (Brain [5]): 7.77 % ID/g

COc1cc(/C=C/c2ccc(OCCC[18F])cc2)cc(OC)c1
Drug uptake (Lung [6]): 1.08 % ID/g
Drug uptake (Blood [7]): 0.98 % ID/g
Drug uptake (Kidney [8]): 2.86 % ID/g
Drug uptake (Muscle tissue [9]): 3.67 % ID/g
Drug uptake (Heart [10]): 1.35 % ID/g
Drug uptake (Spleen [11]): 0.84 % ID/g
Drug uptake (Spleen [12]): 3.15 % ID/g
Drug uptake (Femur [13]): 16.15 % ID/g
logP [14]: 2.84
Drug uptake (Muscle tissue [15]): 0.74 % ID/g
Drug uptake (Kidney [16]): 10.46 % ID/g
Drug uptake (Heart [17]): 0.56 % ID/g
Drug uptake (Brain [18]): 1 % ID/g
Drug uptake (Liver [19]): 5.99 % ID/g
Drug uptake (Blood [20]): 0.43 % ID/g
Drug uptake (Lung [21]): 1.72 % ID/g
Drug uptake (Heart [22]): 7.22 % ID/g
Drug uptake (Liver [23]): 4.47 % ID/g
Drug uptake (Lung [24]): 1.16 % ID/g
Drug uptake (Blood [25]): 2.08 % ID/g
Ratio (Brain [26]): 2.9
Drug uptake (Brain [27]): 1.13 % ID/g
Drug uptake (Spleen [28]): 1.23 % ID/g
Drug uptake (Spleen [29]): 0.97 % ID/g
Drug uptake (Muscle tissue [30]): 1.27 % ID/g
Drug uptake (Femur [31]): 5.24 % ID/g
Drug uptake (Femur [32]): 1.88 % ID/g
Drug uptake (Heart [33]): 0.61 % ID/g
Drug uptake (Brain [34]): 2.09 % ID/g
Drug uptake (Blood [35]): 0.38 % ID/g
Drug uptake (Lung [36]): 8.17 % ID/g
Drug uptake (Brain [37]): 3.26 % ID/g
Drug uptake (Kidney [38]): 2.76 % ID/g
Drug uptake (Liver [39]): 2.47 % ID/g
Ratio (Brain [4]): 1.6
Drug uptake (Kidney [40]): 1.65 % ID/g
Drug uptake (Femur [41]): 9.73 % ID/g
Drug uptake (Liver [42]): 14.35 % ID/g
Drug uptake (Muscle tissue [43]): 1.07 % ID/g

COc1cc(/C=C/c2ccc(OCCF)cc2)cc(OC)c1
Ki [2]: 0.74 nM

CN(C)c1ccc(-c2nc3ccc([125I])cc3o2)cc1
Ki [1]: 0.8 nM

CNc1ccc(-c2cn3c(n2)sc2cc(OCC[18F])ccc23)cc1
Ratio (Brain [44]): 5.6

COc1cc(/C=C/c2ccc(OCCCF)cc2)cc(OC)c1
Ki [2]: 0.49 nM

CNc1ccc(-c2nc3ccc(O)cc3s2)cc1[18F] [FLUTEMETAMOL F 18]
Ki [1]: 0.74 nM

Oc1cc(O)cc(/C=C/c2ccc(F)cc2)c1
Ki [2]: 39.7 nM

CN(C)c1ccc(/C=C/c2cn(CC[18F])nn2)cc1
Drug uptake (Lung [6]): 1.04 % ID/g
Drug uptake (Blood [7]): 2.16 % ID/g
Drug uptake (Kidney [8]): 7.32 % ID/g
Drug uptake (Muscle tissue [9]): 2.44 % ID/g
Drug uptake (Heart [10]): 1.32 % ID/g
Drug uptake (Spleen [11]): 0.6 % ID/g
Drug uptake (Spleen [12]): 2.36 % ID/g
Drug uptake (Femur [13]): 1.54 % ID/g
logP [14]: 1.74
Drug uptake (Muscle tissue [15]): 0.51 % ID/g
Drug uptake (Kidney [16]): 7.32 % ID/g
Drug uptake (Heart [17]): 0.81 % ID/g
Drug uptake (Brain [18]): 0.48 % ID/g
Drug uptake (Liver [19]): 7.59 % ID/g
Drug uptake (Blood [20]): 1.27 % ID/g
Drug uptake (Lung [21]): 1.75 % ID/g
Drug uptake (Heart [22]): 3.8 % ID/g
Drug uptake (Liver [23]): 3.47 % ID/g
Drug uptake (Lung [24]): 0.76 % ID/g
Drug uptake (Blood [25]): 3.35 % ID/g
Ratio (Brain [26]): 10.3
Drug uptake (Brain [27]): 0.52 % ID/g
Drug uptake (Spleen [28]): 0.85 % ID/g
Drug uptake (Spleen [29]): 0.49 % ID/g
Drug uptake (Muscle tissue [30]): 0.74 % ID/g
Drug uptake (Femur [31]): 0.7 % ID/g
Drug uptake (Femur [32]): 1.49 % ID/g
Drug uptake (Heart [33]): 0.71 % ID/g
Drug uptake (Brain [34]): 0.68 % ID/g
Drug uptake (Blood [35]): 0.98 % ID/g
Drug uptake (Lung [36]): 5.73 % ID/g
Drug uptake (Brain [37]): 5.38 % ID/g
Drug uptake (Kidney [38]): 3.7 % ID/g
Drug uptake (Liver [39]): 3.47 % ID/g
Ratio (Brain [4]): 7.9
Drug uptake (Kidney [40]): 1.86 % ID/g
Drug uptake (Femur [41]): 0.94 % ID/g
Drug uptake (Liver [42]): 12.5 % ID/g
Drug uptake (Muscle tissue [43]): 0.4 % ID/g

COc1ccc2c(c1)sc1nc(-c3ccc(N[11CH3])cc3)cn12
Ratio (Brain [44]): 9.1

CN(C)c1ccc(-c2cn3cc([125I])ccc3n2)cc1
Drug uptake (Brain [5]): 2.88 %ID

CNc1ccc(/C=C/c2ccc(OCCOCCOCC[18F])nc2)cc1 [FLORBETAPIR F 18]
Ki [1]: 2.87 nM
logP [3]: 2.41
Ratio (Brain [26]): 3.9

CNc1ccc(-c2cc3cc(O)ccc3o2)c([18F])n1 [FLUTAFURANOL F 18]
Drug uptake (Cynomolgus monkey [45]): 5.2 %ID
Drug uptake (Cynomolgus monkey [46]): 0.5 %ID

COc1cc(/C=C/c2ccc(F)cc2)cc(OC)c1
Ki [2]: 4.95 nM
